Measured values as given in the supplement of paper PMC10307832.

Assays:
Assay in all cases: relative viability (nuclei count vs DMSO), 5 days (fraction); higher = more cells survive
NCI-H322M = tested on: NCI-H322M
How it was run: (§1)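 Lung cancer cell lines, seeded in 1536-well plates, were treated the following day by pin tool with a single drug or with five library-drug doses (not always all listed) in √10 steps on top of a fixed anchor-drug dose. Cells were fixed and nuclei stained in one step after 5 days, and nuclei were counted. Relative viability is the nuclei count for treated wells divided by that for vehicle wells, reported as medians of duplicate plates.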

NCI-H520 = tested on: NCI-H520
How it was run: as §1

NCI-H1755 = tested on: NCI-H1755
How it was run: as §1

SK-MES-1 = tested on: SK-MES-1
How it was run: as §1

NCI-H1651 = tested on: NCI-H1651
How it was run: as §1

NCI-H2347 = tested on: NCI-H2347
How it was run: as §1

LCLC-103H = tested on: LCLC-103H
How it was run: as §1

NCI-H1915 = tested on: NCI-H1915
How it was run: as §1

NCI-H727 = tested on: NCI-H727
How it was run: as §1

SW 900 = tested on: SW 900
How it was run: as §1

NCI-H522 = tested on: NCI-H522
How it was run: as §1

NCI-H3122 = tested on: NCI-H3122
How it was run: as §1

RERF-LC-KJ = tested on: RERF-LC-KJ
How it was run: as §1

NCI-H441 = tested on: NCI-H441
How it was run: as §1

NCI-H460 = tested on: NCI-H460
How it was run: as §1

NCI-H661 = tested on: NCI-H661
How it was run: as §1

NCI-H1355 = tested on: NCI-H1355
How it was run: as §1

NCI-H596 = tested on: NCI-H596
How it was run: as §1

PC-14 = tested on: PC-14
How it was run: as §1

LXF-289 = tested on: LXF-289
How it was run: as §1

Structure (SMILES): Nc1ccn([C@@H]2O[C@H](CO)[C@@H](O)[C@@H]2O)c(=O)n1 [Cytarabine] + O=C(CCCCCCC(=O)Nc1ccccc1)NO [Vorinostat] (partner 1 µM)
- relative viability (NCI-H322M; first compound 0.005 µM): 0.804
- relative viability (NCI-H322M; first compound 0.01581 µM): 0.785
- relative viability (NCI-H322M; first compound 0.05 µM): 0.641
- relative viability (NCI-H322M; first compound 0.1581 µM): 0.589
- relative viability (NCI-H322M; first compound 0.5 µM): 0.426
- relative viability (NCI-H520; first compound 0.005 µM): 0.636
- relative viability (NCI-H520; first compound 0.01581 µM): 0.668
- relative viability (NCI-H520; first compound 0.05 µM): 0.776
- relative viability (NCI-H520; first compound 0.1581 µM): 0.555
- relative viability (NCI-H520; first compound 0.5 µM): 0.502
- relative viability (NCI-H1755; first compound 0.005 µM): 0.823
- relative viability (NCI-H1755; first compound 0.01581 µM): 0.794
- relative viability (NCI-H1755; first compound 0.05 µM): 0.685
- relative viability (NCI-H1755; first compound 0.1581 µM): 0.502
- relative viability (NCI-H1755; first compound 0.5 µM): 0.375
- relative viability (SK-MES-1; first compound 0.005 µM): 0.851
- relative viability (SK-MES-1; first compound 0.01581 µM): 0.778
- relative viability (SK-MES-1; first compound 0.05 µM): 0.6
- relative viability (SK-MES-1; first compound 0.1581 µM): 0.283
- relative viability (SK-MES-1; first compound 0.5 µM): 0.233
- relative viability (NCI-H1651; first compound 0.005 µM): 0.585
- relative viability (NCI-H1651; first compound 0.01581 µM): 0.535
- relative viability (NCI-H1651; first compound 0.05 µM): 0.242
- relative viability (NCI-H1651; first compound 0.1581 µM): 0.489
- relative viability (NCI-H1651; first compound 0.5 µM): 0.417
- relative viability (NCI-H2347; first compound 0.005 µM): 0.531
- relative viability (NCI-H2347; first compound 0.01581 µM): 0.586
- relative viability (NCI-H2347; first compound 0.05 µM): 0.555
- relative viability (NCI-H2347; first compound 0.1581 µM): 0.498
- relative viability (NCI-H2347; first compound 0.5 µM): 0.409
- relative viability (LCLC-103H; first compound 0.005 µM): 0.806
- relative viability (LCLC-103H; first compound 0.01581 µM): 0.861
- relative viability (LCLC-103H; first compound 0.05 µM): 0.758
- relative viability (LCLC-103H; first compound 0.1581 µM): 0.745
- relative viability (LCLC-103H; first compound 0.5 µM): 0.692
- relative viability (NCI-H1915; first compound 0.005 µM): 0.477
- relative viability (NCI-H1915; first compound 0.01581 µM): 0.424
- relative viability (NCI-H1915; first compound 0.05 µM): 0.375
- relative viability (NCI-H1915; first compound 0.1581 µM): 0.318
- relative viability (NCI-H1915; first compound 0.5 µM): 0.235
- relative viability (NCI-H727; first compound 0.005 µM): 1.22
- relative viability (NCI-H727; first compound 0.01581 µM): 1.16
- relative viability (NCI-H727; first compound 0.05 µM): 0.566
- relative viability (NCI-H727; first compound 0.1581 µM): 0.552
- relative viability (NCI-H727; first compound 0.5 µM): 0.524
- relative viability (SW 900; first compound 0.005 µM): 0.399
- relative viability (SW 900; first compound 0.01581 µM): 0.491
- relative viability (SW 900; first compound 0.05 µM): 0.376
- relative viability (SW 900; first compound 0.1581 µM): 0.182
- relative viability (SW 900; first compound 0.5 µM): 0.166
- relative viability (NCI-H522; first compound 0.005 µM): 0.993
- relative viability (NCI-H522; first compound 0.01581 µM): 0.837
- relative viability (NCI-H522; first compound 0.05 µM): 0.694
- relative viability (NCI-H522; first compound 0.1581 µM): 0.615
- relative viability (NCI-H522; first compound 0.5 µM): 0.563
- relative viability (NCI-H3122; first compound 0.005 µM): 0.938
- relative viability (NCI-H3122; first compound 0.01581 µM): 0.914
- relative viability (NCI-H3122; first compound 0.05 µM): 0.894
- relative viability (NCI-H3122; first compound 0.1581 µM): 0.695
- relative viability (NCI-H3122; first compound 0.5 µM): 0.293
- relative viability (RERF-LC-KJ; first compound 0.005 µM): 0.569
- relative viability (RERF-LC-KJ; first compound 0.01581 µM): 0.66
- relative viability (RERF-LC-KJ; first compound 0.05 µM): 0.513
- relative viability (RERF-LC-KJ; first compound 0.1581 µM): 0.474
- relative viability (RERF-LC-KJ; first compound 0.5 µM): 0.393
- relative viability (NCI-H441; first compound 0.005 µM): 0.527
- relative viability (NCI-H441; first compound 0.01581 µM): 0.882
- relative viability (NCI-H441; first compound 0.05 µM): 0.852
- relative viability (NCI-H441; first compound 0.1581 µM): 0.398
- relative viability (NCI-H441; first compound 0.5 µM): 0.229
- relative viability (NCI-H460; first compound 0.005 µM): 0.422
- relative viability (NCI-H460; first compound 0.01581 µM): 0.436
- relative viability (NCI-H460; first compound 0.05 µM): 0.259
- relative viability (NCI-H460; first compound 0.1581 µM): 0.0538
- relative viability (NCI-H460; first compound 0.5 µM): 0.0412
- relative viability (NCI-H661; first compound 0.005 µM): 0.751
- relative viability (NCI-H661; first compound 0.01581 µM): 0.698
- relative viability (NCI-H661; first compound 0.05 µM): 0.6
- relative viability (NCI-H661; first compound 0.1581 µM): 0.513
- relative viability (NCI-H661; first compound 0.5 µM): 0.456
- relative viability (NCI-H1355; first compound 0.005 µM): 0.578
- relative viability (NCI-H1355; first compound 0.01581 µM): 0.638
- relative viability (NCI-H1355; first compound 0.05 µM): 0.64
- relative viability (NCI-H1355; first compound 0.1581 µM): 0.458
- relative viability (NCI-H1355; first compound 0.5 µM): 0.299
- relative viability (NCI-H596; first compound 0.005 µM): 0.545
- relative viability (NCI-H596; first compound 0.01581 µM): 0.553
- relative viability (NCI-H596; first compound 0.05 µM): 0.502
- relative viability (NCI-H596; first compound 0.1581 µM): 0.431
- relative viability (NCI-H596; first compound 0.5 µM): 0.272
- relative viability (PC-14; first compound 0.005 µM): 0.519
- relative viability (PC-14; first compound 0.01581 µM): 0.601
- relative viability (PC-14; first compound 0.05 µM): 0.617
- relative viability (PC-14; first compound 0.1581 µM): 0.154
- relative viability (PC-14; first compound 0.5 µM): 0.082
- relative viability (LXF-289; first compound 0.005 µM): 0.736
- relative viability (LXF-289; first compound 0.01581 µM): 0.856
- relative viability (LXF-289; first compound 0.05 µM): 0.639
- relative viability (LXF-289; first compound 0.1581 µM): 0.464
- relative viability (LXF-289; first compound 0.5 µM): 0.27
